Data: patent US11666658B2, “Rifamycin analogs and antibody-drug conjugates thereof” (Regeneron Pharmaceuticals, Inc., priority 2018, dated 2023)
≈ marks a conversion by molar mass, not a printed value. Where two headings read alike, the source gives them in different places.

Tests used:
[1] = tested on: intracellular S. aureus NRS384 in THP-1 macrophages; assay: Intracellular killing assay 2 (rifamycin analogs, S. aureus in THP-1 macrophages); assay type: cell-based, Staphylococcus aureus; details: Staphylococcus aureus, NRS384, 2 h, read-out: S. aureus Intracellular killing MIC
Method: THP-1 monocytic cell line was grown in media (RMPI+10% FBS+1% Penicillin/Streptomycin), then seeded at a density of 1e5 cells/well in a 96 well plate and differentiated into macrophages for three days prior to infection using 200 nM PMA. An overnight culture of S. aureus NRS384 was grown in RPMI, washed twice with PBS and resuspended at 1e7 cfu/mL in PBS. THP-1 were washed with warm media (RMPI without FBS) to remove the Penicillin/Streptomycin and then infected with the S. aureus suspension at a multiplicity of infection of 10:1 (S. aureus: macrophages). Plates were spun at 300×g for 5 minutes to synchronize adhesion of the bacteria, then incubated at 37° C. for 2 hours. Free-floating bacteria were removed by washing 2× with warm media and remaining extracellular S. aureus were killed by addition of media containing gentamicin (50 ug/mL). […] The compounds were added in media containing 50 µg/mL gentamicin to prevent extracellular growth of S. aureus. After 2 hours, plates were washed 2× with warm RPMI without FBS, and 100 ul of THP-1 lysis buffer (0.1% Triton in PBS) was added to each well. S. aureus survival was enumerated by colony forming units through serial dilution and plating onto TSA.
The intracellular MIC value indicated represents the median value of at least two independent experiments, unless indicated otherwise.

S. aureus NRS384 = assay: Broth minimum inhibitory concentration (MIC) assay 2; assay type: cell-based, Staphylococcus aureus; details: Staphylococcus aureus, read-out: S. aureus Broth MIC
Method: To test the potency of rifamycin analogs of the disclosure in vitro, a broth growth inhibition assay was developed. For the assay, S. aureus NRS384 was grown in Tryptic Soy Broth (TSB) overnight, then sub-cultured 1:50 in fresh TSB and grown for an additional two hours. The culture was then pelleted via centrifugation and washed twice in PBS. The culture was then diluted to 1×10^6 cfu/mL in TSB and 100 μL of the suspension was added per well to a 2 mL dilution plate in triplicate. […] The plates were sealed and incubated at 37° C. with shaking for 24 hours, then 150 μL of each sample was added to 96 well microtiter plates and the OD600 nm was read on a Spectramax i3 Minimax 300.
The broth MIC experiments were assessed in at least two independent experiments and the median value is captured below unless indicated otherwise.

[2] = lowest concentration giving intracellular S. aureus below limit of detection (50 cfu/mL) in THP-1 macrophages, median of at least two experiments
[3] = S. aureus NRS384 in TSB, 24 hours at 37° C., OD600, median of at least two independent experiments

| Structure (SMILES) | MIC (S. aureus NRS384; [3]) [µM] | MIC [1, 2] [µM] | MIC [1] [µM] | MIC (S. aureus NRS384; NRS384, 24 h) [µM] |
| --- | --- | --- | --- | --- |
| CO[C@H]1/C=C/O[C@@]2(C)Oc3c(C)c(O)c4c(=O)c(c5oc6cc(OCCNC(C)=O)ccc6nc-5c4c3C2=O)NC(=O)/C(C)=C\C=C\[C@H](C)[C@H](O)[C@@H](C)[C@@H](O)[C@@H](C)[C@H](OC(C)=O)[C@@H]1C [Analog 16x] | 0.000977 (≈ 0.000866 µg/mL) | > 1 |  |  |
| CO[C@H]1/C=C/O[C@@]2(C)Oc3c(C)c(O)c4c(=O)c(c5oc6cc(OCCN(C(C)C)C(C)C)ccc6nc-5c4c3C2=O)NC(=O)/C(C)=C\C=C\[C@H](C)[C@H](O)[C@@H](C)[C@@H](O)[C@@H](C)[C@H](OC(C)=O)[C@@H]1C [Analog 16u] | 1 (≈ 0.928 µg/mL) | 1 (≈ 0.928 µg/mL) |  |  |
| CO[C@H]1/C=C/O[C@@]2(C)Oc3c(C)c(O)c4c(=O)c(c5oc6cc(OC7CCN(C)CC7)ccc6nc-5c4c3C2=O)NC(=O)/C(C)=C\C=C\[C@H](C)[C@H](O)[C@@H](C)[C@@H](O)[C@@H](C)[C@H](OC(C)=O)[C@@H]1C [Analog 17] | 0.0156 (≈ 0.014 µg/mL) | 0.2 (≈ 0.18 µg/mL) |  |  |
| CO[C@H]1/C=C/O[C@@]2(C)Oc3c(C)c(O)c4c(=O)c(c5oc6cc(OCCN7CCCC7)ccc6nc-5c4c3C2=O)NC(=O)/C(C)=C\C=C\[C@H](C)[C@H](O)[C@@H](C)[C@@H](O)[C@@H](C)[C@H](OC(C)=O)[C@@H]1C [Analog 16k] | 0.000977 (≈ 0.000877 µg/mL) | 1 (≈ 0.898 µg/mL) |  |  |
| CO[C@H]1/C=C/O[C@@]2(C)Oc3c(C)c(O)c4c(=O)c(c5oc6cc(OCCN7CCOCC7)ccc6nc-5c4c3C2=O)NC(=O)/C(C)=C\C=C\[C@H](C)[C@H](O)[C@@H](C)[C@@H](O)[C@@H](C)[C@H](OC(C)=O)[C@@H]1C [Analog 16i] | 0.0156 (≈ 0.0143 µg/mL) | 1 (≈ 0.914 µg/mL) |  |  |
| CO[C@H]1/C=C/O[C@@]2(C)Oc3c(C)c(O)c4c(=O)c(c5oc6cc(OCc7ccccc7CN(C)C)ccc6nc-5c4c3C2=O)NC(=O)/C(C)=C\C=C\[C@H](C)[C@H](O)[C@@H](C)[C@@H](O)[C@@H](C)[C@H](OC(C)=O)[C@@H]1C [Analog 16w] | 0.0625 (≈ 0.0593 µg/mL) | > 1 |  |  |
| CO[C@H]1/C=C/O[C@@]2(C)Oc3c(C)c(O)c4c(=O)c(c5oc6cc(OCCn7ccnc7)ccc6nc-5c4c3C2=O)NC(=O)/C(C)=C\C=C\[C@H](C)[C@H](O)[C@@H](C)[C@@H](O)[C@@H](C)[C@H](OC(C)=O)[C@@H]1C [Analog 16y] | 0.0156 (≈ 0.014 µg/mL) | > 1 |  |  |
| CO[C@H]1/C=C/O[C@@]2(C)Oc3c(C)c(O)c4c(=O)c(c5oc6cc(OCCNCCOCCN7CC7)ccc6nc-5c4c3C2=O)NC(=O)/C(C)=C\C=C\[C@H](C)[C@H](O)[C@@H](C)[C@@H](O)[C@@H](C)[C@H](OC(C)=O)[C@@H]1C [Analog 16r] |  |  | 1 (≈ 0.957 µg/mL) | 0.0156 (≈ 0.0149 µg/mL) |

Continued, in another order:

| MIC (S. aureus NRS384; [3]) [µM] | Structure (SMILES) | MIC [1, 2] [µM] | MIC [1] [µM] | MIC (S. aureus NRS384; NRS384, 24 h) [µM] |
| --- | --- | --- | --- | --- |
| 0.0625 (≈ 0.0594 µg/mL) | CO[C@H]1/C=C/O[C@@]2(C)Oc3c(C)c(O)c4c(=O)c(c5oc6cc(OCCN(C)c7ccccn7)cc(O)c6nc-5c4c3C2=O)NC(=O)/C(C)=C\C=C\[C@H](C)[C@H](O)[C@@H](C)[C@@H](O)[C@@H](C)[C@H](OC(C)=O)[C@@H]1C [Analog 29h] | 1 (≈ 0.951 µg/mL) |  |  |
| 0.0156 (≈ 0.0145 µg/mL) | CO[C@H]1/C=C/O[C@@]2(C)Oc3c(C)c(O)c4c(=O)c(c5oc6cc(OCCOCCN(C)C)cc(O)c6nc-5c4c3C2=O)NC(=O)/C(C)=C\C=C\[C@H](C)[C@H](O)[C@@H](C)[C@@H](O)[C@@H](C)[C@H](OC(C)=O)[C@@H]1C [Analog 29f] | 0.2 (≈ 0.186 µg/mL) |  |  |
| 0.000977 (≈ 0.000895 µg/mL) | CO[C@H]1/C=C/O[C@@]2(C)Oc3c(C)c(O)c4c(=O)c(c5oc6cc(OCCN(C)C(C)=O)cc(O)c6nc-5c4c3C2=O)NC(=O)/C(C)=C\C=C\[C@H](C)[C@H](O)[C@@H](C)[C@@H](O)[C@@H](C)[C@H](OC(C)=O)[C@@H]1C [Analog 29j] | 0.04 (≈ 0.0366 µg/mL) |  |  |
| 0.0625 (≈ 0.0511 µg/mL) | CO[C@H]1/C=C/O[C@@]2(C)Oc3c(C)c(O)c4c(=O)c(c5oc6cc(O)cc(O)c6nc-5c4c3C2=O)NC(=O)/C(C)=C\C=C\[C@H](C)[C@H](O)[C@@H](C)[C@@H](O)[C@@H](C)[C@H](OC(C)=O)[C@@H]1C [Analog 29k] | > 1 |  |  |
| 0.00391 (≈ 0.00357 µg/mL) | CO[C@H]1/C=C/O[C@@]2(C)Oc3c(C)c(O)c4c(=O)c(c5oc6cc(OCC7CCN(C)C7)cc(O)c6nc-5c4c3C2=O)NC(=O)/C(C)=C\C=C\[C@H](C)[C@H](O)[C@@H](C)[C@@H](O)[C@@H](C)[C@H](OC(C)=O)[C@@H]1C (some centres unmarked) [Analog 29a] | 0.04 (≈ 0.0366 µg/mL) |  |  |
